Assays:
Acute toxicity = type: in vivo; details: oral, 300 mg/kg, 3 male ddy mice (5 weeks old), observed one week
Protocol: Each of the compounds prepared as described in Examples 2, 7 and 15 was separately administered orally in a dose of 300 mg/kg to each of a group of 3 male ddy mice (5 weeks old).

PAF-induced hypotension = test: Inhibition of PAF-induced hypotension; type: in vivo, Wistar-Imamichi rats; details: Rattus norvegicus, iv, 1 min; anesthetized rats; l-C16:0 PAF 10 ng/kg i.v.; test compound i.v. cumulatively, 1 min before PAF; read-out: Inhibitory effect ID50
Protocol: Inhibition of PAF-induced hypotension
The test animals used were Wistar-Imamichi rats, each weighing from 350 to 450 g, anesthetized with Inactin (90 mg/kd, intraperitoneally).
Blood pressure was continuously measured throughout the experiment through a cannula inserted into the femoral artery. Each drug sample to be tested was intravenously injected through a cannula inserted into the femoral vein.
At first, l-C16:0 PAF was injected intravenously in amounts of 10 ng/kg at each injection at intervals of 5 minutes until the degree of the hypotensive response became constant. Then, each drug sample to be treated was intravenously injected. After one minute, the same dose of PAF was administered again. The drug sample was cumulatively administered. From its inhibition rate against the PAF-induced hypotensive effect, the 50% inhibitive dose (ID50) was determined, and is regarded as an index of PAF-antagonist activity. For administration, the PAF was dissolved in physiological saline solution containing 0.25% w/v of bovine serum albumin (BSA). The compounds under test were dissolved in dimethylformamide for use.
CV-3988 is disclosed in U.S. Pat. No. 4,408,052, and is structurally related to PAF itself.
In this Table, the compounds of the invention are identified by the number of the foregoing Example in which they were prepared.

[1] = system: blood platelet (PAF-induced aggregation); test: Inhibitory effect in vitro against PAF-induced blood platelet aggregation; type: cell-based; details: Oryctolagus cuniculus, 5 min; rabbit platelet rich plasma; l-C16:0 PAF final 10^-8 ~3×10^-8 M; 5 min observation
Protocol: Inhibitory effect in vitro against PAF-induced blood platelet aggregation
Blood samples were drawn from a rabbit and one part by volume of each sample was immediately mixed with 1/9 part of a 3.8% w/v aqueous solution of sodium citrate. The samples were centrifuged at 150×G at room temperature for 15 minutes to obtain a platelet rich plasma (PRP) fraction from the upper layer. The remains were further centrifuged at 1,000×G for 15 minutes to obtain a platelet poor plasma (PPP) fraction from the upper layer. The PRP and PPP fractions were mixed appropriately, to obtain a sample in which the final count of blood platelets was adjusted to be 6×10^5 per ul. According to the method reported by Born et al. [G. V. R. Born et al.: J. Physiol. 62, 67-68 (1962)], blood platelet aggregation was determined by an increase in light transmission measured using an aggregometer. 3 ul of a solution of the test compound in dimethyl sulfoxide were added to 272 ul of PRP, and, after 1 minute, 25 ul of a physiological saline solution containing l-c16:0 PAF (at a final concentration of 10^-8 ~3×10^-8 M) were added. […] At the end of this value and the value of PAF-induced aggregation which was observed when dimethyl sulfoxide only was used without the addition of any test compound. IC50 values were calculated from the dose-response curve.

PAF-receptor = target: T1, PAF-receptor (Oryctolagus cuniculus, UniProt G1TEI7); test: Inhibitor effect on PAF-receptor binding; details: specific binding of ^3H-PAF; rabbit platelet PAF-receptor membrane fraction; read-out: Inhibition of receptor binding (IC50 M)
T1 construct: is regarded as a PAF-receptor membrane fraction; from tissue; host or cells: rabbit blood platelets (membrane fraction from sucrose density layers)
T1 sequence (G1TEI7 1-342): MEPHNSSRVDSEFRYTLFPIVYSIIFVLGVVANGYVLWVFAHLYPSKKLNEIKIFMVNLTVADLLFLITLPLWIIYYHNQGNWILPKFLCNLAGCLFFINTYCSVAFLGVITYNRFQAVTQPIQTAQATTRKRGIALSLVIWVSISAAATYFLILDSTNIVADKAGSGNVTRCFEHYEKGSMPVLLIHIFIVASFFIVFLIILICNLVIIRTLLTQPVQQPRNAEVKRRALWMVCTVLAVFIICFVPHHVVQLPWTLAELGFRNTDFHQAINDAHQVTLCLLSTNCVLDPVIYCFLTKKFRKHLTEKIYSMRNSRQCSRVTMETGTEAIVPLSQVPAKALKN
From the text: Inhibitor effect on PAF-receptor binding
Blood samples were drawn from the heart of a rabbit. 1 part by volume of each sample was mixed immediately with 1/9 part of 0.77M solution of disodium ethylenediaminetetraacetate. After a similar procedure to that described in Experiment 2, a precipitated blood platelet sample was obtained. This blood platelet sample was washed, and, after repeated freezing and thawing for cellular breakdown, it was laid on top of double layers consisting of […] and 1.5M sucrose solutions. By centrifugation at 63,500×G, for 2 hours at 4° C., the fraction obtained from the interface between the 0.25M and 1.5M sucrose solutions was collected and is regarded as a PAF-receptor membrane fraction. A receptor binding experiment was conducted according to a method very similar to that reported by Hwang et al. [San-Bao Hwang et al.: J. Biol. Chem. 260, 15639-15645 (1985)]. The specific binding of ^3 H-PAF was measured using a Wattman GF/C filter. A test compound was dissolved in dimethyl sulfoxide and diluted 100 fold with a buffer solution containing 0.5% bovine serum albumin. Nine parts by weight of the solution, for a receptor binding experiment, was mixed with one part of the test compound solution prepared above. The percent inhibition of the specific binding was plotted for a log concentration of the test compound, and the 50% inhibitory concentration (IC50) was calculated from the linear line connecting all the plotted points.

Row | Compound | Acute toxicity (survival) (Acute toxicity) | ED50 (PAF-induced hypotension) [mg/kg] | IC50 [1] [nM] | IC50 (PAF-receptor) [nM]
1 | COc1ccc(C(=CC(=O)N2CCN(C(=O)c3cc(OC)c(OC)c(OC)c3)CC2)c2ccc(OC)cc2)cc1 [Example 2, 1-[3,3-Bis(4-methoxyphenyl)acryloyl]-4-(3,4,5-trimethoxybenzoyl)piperazine] | all mice survived | 0.039 | 200 | 
2 | COc1ccc(/C(=C/C(=O)N2CCN(C(=O)c3cc(OC)c(OC)c(OC)c3)CC2)c2ccccc2)cc1OC [Example 7, 1-[(E)-3-(3,4-Dimethoxyphenyl)cinnamoyl]-4-(3,4,5-trimethoxybenzoyl)piperazine] | all mice survived | 0.014 |  | 
3 | COc1ccc(/C(=C/C(=O)N2CCN(C(=O)c3cc(OC)c(OC)c(OC)c3)CC2)c2ccc(Cl)cc2)cc1OC [Example 15, 1-[(E)-3-(4-Chlorophenyl)-3-(3,4-dimethoxyphenyl)acryloyl]-4-(3,4,5-trimethoxybenzoyl)piperazine] | all mice survived | 0.022 | 68 | 43
4 | COc1ccc(/C(=C/C(=O)N2CCN(C(=O)c3cc(OC)c(OC)c(OC)c3)CC2)c2cc(F)cc(F)c2)cc1 [Example 87, 1-[(Z)-3-(4-Methoxyphenyl)-3-(3,5-difluorophenyl)acryloyl]-4-(3,4,5-trimethoxybenzoyl)piperazine] |  | 0.011 | 65 | 76

— US5192766A, “N-acryloylpiperazine derivatives, their preparation and their use as PAF antagonists” (Sankyo Company, Limited, priority 1989, dated 1993)
